Tests used:
Format in all cases: cell-based, human
[1] = system: MCF-10a cells expressing mutant pri-miR-27a; experiment: Migration of MCF-10a cells expressing mutant pri-miR-27a; conditions: forced expression of mutated pri-miR-27a
Description: MCF-10a cells were transfected with plasmids to express pri-miR-27a and mutant pri-miR-27a in 12- or 24-well plates with Lipofectamine 2000 per the manufacturer's protocol. For treatment of compounds, stocks were diluted in growth medium and added to cells for 48 h. The miRCURY miR-27a LNA inhibitor (QIAGEN, Cat #339121) was used as a positive control by diluting in growth medium to a final concentration of 1 nM. The miRCURY LNA Negative Control (QIAGEN, Cat #YI00199007-DDA) was used as a negative control, which has also diluted in growth medium to a final concentration of 1 nM.
Migration assay: MDA-MB-231 cells were grown in 60 mm diameter dishes and treated as described in “Cell culture and compound treatment” for 12 h. The medium was then removed and replaced with growth medium lacking FBS but with the same concentration of compound. After 12 h of serum starvation, the cells were detached and seeded to ThinCert™ (GBO) 24-well hanging inserts with 8 μm pores (˜5×10^4 cells per insert). Fresh growth medium with FBS was dispended in a 24-well plate (600 μL each well), and the ThinCert™ hanging inserts containing cells were then placed into the wells. After incubating for 24 h, the growth medium in the inserts was removed, and the remaining cells were washed twice with 1×DPBS. […] The remaining cells were then imaged by microscopy and counted for quantification (3 fields of view per sample).

[2] = system: ZBTB10; experiment: Western blot of ZBTB10 in MDA-MB-231 cells; conditions: relative to β-actin, 48 h
[3] = system: pri-miR-27a; experiment: RT-qPCR of pri- and mature miR-27a in MCF-7 cells; conditions: MCF-7, RT-qPCR
Description: Cell lines. Compounds were tested in MDA-MB-231 TNBC cells (HTB-26, ATCC), LNCaP metastatic prostate cancer cells (gifted from Junli Luo lab), MCF-7 (HTB-22, ATCC) breast cancer cells, HeLa cervical adenocarcinoma cells (CCL-2, ATCC), and MCF-10a, a model of healthy breast epithelial cells (CRL-10317, ATCC).
Cell culture and compound treatment. All cells were maintained at 37° C. with 5% CO2. MDA-MB-231 and LNCaP cells were cultured in RPMI 1640 medium with L-glutamine & 25 mM HEPES (Corning) supplemented with 10% (v/v) fetal bovine serum (FBS; Sigma) and 1× (v/v) Antibiotic-Antimycotic solution (Corning). MCF-7 and HeLa cells were cultured in DMEM medium with 4.5 g/L glucose (Corning), supplemented with 10% FBS, 1× (v/v) Glutagro (Corning), and 1× (v/v) Antibiotic-Antimycotic solution. […]
Analysis of mRNA abundance: Each cell line was grown as a monolayer in 12- or 24-well plates and treated as described in “Cell culture and compound treatment”. […] Relative abundance of mature miRNAs was calculated by normalizing to RNU6, and relative abundance for pri-miRNAs and mRNAs was calculated by normalizing to 18S ribosomal RNA, using the AAC, method. […]

[4] = system: PDCD4; experiment: Western blot of PDCD4 in MDA-MB-231 cells; conditions: relative to β-actin, 48 h
Description: Western Blotting: MDA-MB-231 cells were grown in 6-well plates to ˜80% confluency in complete growth medium and then incubated with 9 at the indicated concentrations for 48 h. Total protein was extracted using M-PER Mammalian Protein Extraction Reagent (Pierce Biotechnology) using the manufacturer's protocol and quantified using a Micro BCA Protein Assay Kit (Pierce Biotechnology). Approximately 50 μg of total protein was separated on a 10% SDS-polyacrylamide gel, and then transferred to a PVDF membrane. The membrane was washed with 1× Tris-buffered saline (TBS) and then blocked in 1×TBST (1×TBS containing 0.1% (v/v) Tween-20) containing 5% (w/v) milk for 1 h at room temperature. […] The membrane was again washed with 1×TBST, and protein expression was quantified using SuperSignal West Pico Chemiluminescent Substrate (Pierce Biotechnology) per the manufacturer's protocol.
To quantify b-actin expression, used for normalization, the membrane was stripped using 1× Stripping Buffer (200 mM glycine, pH 2.2 and 0.1% SDS) followed by washing in 1×TBST. […] The fold change of the target protein expression (PP4C or PDCD4) was calculated by normalizing its band intensity to b-actin band intensity using ImageJ.

[5] = system: MDA-MB-231 cells; experiment: miRNome profiling of all miRNAs detectable in MDA-MB-231 cells; conditions: 1 μM, FDR <1%, P<0.01

C#CCN(CC(N)=O)C(=O)C[C@H](Cc1c[nH]c2ccccc12)NC(=O)[C@@H]1C[C@H](NC(=O)Cn2c(=O)[nH]c3ccccc3c2=O)CN1 [Compound 9]
rescue of migratory phenotype [1]: did not inhibit biogenesis of the mutated pri-miR-27a in MCF-10A (FIG. 3B) or rescue the migratory phenotype | ZBTB10 expression [2]: upregulation | dose with significant inhibition of miR-27a processing [3]: 100 nM | PDCD4 expression [4]: upregulation | only statistically significant effect across the miRNome [5]: downregulation of miR-27a
